The values below come from US10875875B2, “Propionic acid derivatives and methods of use thereof” (Aviara Pharmaceuticals, Inc., priority 2017, dated 2020).

Assay [1] has as its target α4β1 (Homo sapiens, UniProt P05556+P13612). Briefly: α4β1 integrin inhibition, IC50. Particulars: read-out: α4β1 IC50. Type of assay: binding.
The target in assay [2] is T1, α4β7 (Homo sapiens, UniProt P13612+P26010).
T1 sequence (P13612 34-1032): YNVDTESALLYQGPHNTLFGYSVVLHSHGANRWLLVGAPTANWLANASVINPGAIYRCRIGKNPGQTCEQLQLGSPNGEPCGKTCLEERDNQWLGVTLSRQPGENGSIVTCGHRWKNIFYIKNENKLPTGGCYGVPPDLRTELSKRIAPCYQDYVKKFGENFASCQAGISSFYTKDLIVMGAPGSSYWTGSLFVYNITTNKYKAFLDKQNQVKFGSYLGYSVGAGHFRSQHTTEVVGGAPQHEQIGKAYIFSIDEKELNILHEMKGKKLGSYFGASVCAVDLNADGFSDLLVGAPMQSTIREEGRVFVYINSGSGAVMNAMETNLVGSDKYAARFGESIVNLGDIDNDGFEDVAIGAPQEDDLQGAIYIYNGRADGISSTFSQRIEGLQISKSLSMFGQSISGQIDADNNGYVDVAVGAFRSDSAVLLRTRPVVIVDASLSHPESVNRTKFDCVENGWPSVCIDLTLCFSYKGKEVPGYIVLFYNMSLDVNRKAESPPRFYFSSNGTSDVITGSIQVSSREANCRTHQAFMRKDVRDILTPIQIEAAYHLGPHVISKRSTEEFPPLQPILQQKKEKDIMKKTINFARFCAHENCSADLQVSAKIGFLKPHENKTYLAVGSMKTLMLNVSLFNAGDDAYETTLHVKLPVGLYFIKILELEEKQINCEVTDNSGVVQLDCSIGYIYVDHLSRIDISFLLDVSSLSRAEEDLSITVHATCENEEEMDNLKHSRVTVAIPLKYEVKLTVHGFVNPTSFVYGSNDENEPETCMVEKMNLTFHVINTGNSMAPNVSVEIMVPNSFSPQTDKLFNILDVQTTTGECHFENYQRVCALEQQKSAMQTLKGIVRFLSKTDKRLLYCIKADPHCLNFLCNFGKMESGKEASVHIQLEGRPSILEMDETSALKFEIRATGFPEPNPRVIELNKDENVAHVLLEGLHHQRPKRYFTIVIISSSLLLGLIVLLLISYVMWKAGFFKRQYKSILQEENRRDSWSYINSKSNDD
T1 sequence (P26010 20-798): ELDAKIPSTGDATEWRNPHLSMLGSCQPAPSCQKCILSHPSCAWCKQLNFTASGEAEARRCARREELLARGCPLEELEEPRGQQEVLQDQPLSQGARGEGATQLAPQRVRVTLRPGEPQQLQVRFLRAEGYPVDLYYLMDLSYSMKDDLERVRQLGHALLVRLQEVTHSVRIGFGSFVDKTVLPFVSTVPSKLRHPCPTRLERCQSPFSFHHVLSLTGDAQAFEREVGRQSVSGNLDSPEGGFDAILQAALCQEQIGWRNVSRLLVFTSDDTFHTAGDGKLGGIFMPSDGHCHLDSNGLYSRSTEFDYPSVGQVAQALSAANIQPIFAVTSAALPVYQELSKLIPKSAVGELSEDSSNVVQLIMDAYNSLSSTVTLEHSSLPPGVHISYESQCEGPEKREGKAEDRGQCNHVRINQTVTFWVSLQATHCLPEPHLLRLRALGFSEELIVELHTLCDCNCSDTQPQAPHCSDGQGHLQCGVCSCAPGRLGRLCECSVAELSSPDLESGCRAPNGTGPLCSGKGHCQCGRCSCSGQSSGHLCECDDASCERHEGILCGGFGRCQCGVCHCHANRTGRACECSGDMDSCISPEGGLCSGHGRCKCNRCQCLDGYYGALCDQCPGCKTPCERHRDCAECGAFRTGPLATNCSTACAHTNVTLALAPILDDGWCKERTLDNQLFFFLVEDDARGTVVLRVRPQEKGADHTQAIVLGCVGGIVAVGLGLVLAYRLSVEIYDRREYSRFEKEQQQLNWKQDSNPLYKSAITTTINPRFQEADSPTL
Nature of the assay: α4β7 integrin inhibition, IC50. Type of assay: binding.

Broadly, the IC50 is the concentration that inhibits the measured activity by half.

Sequence of α4β1 (P05556 21-798, one chain of several): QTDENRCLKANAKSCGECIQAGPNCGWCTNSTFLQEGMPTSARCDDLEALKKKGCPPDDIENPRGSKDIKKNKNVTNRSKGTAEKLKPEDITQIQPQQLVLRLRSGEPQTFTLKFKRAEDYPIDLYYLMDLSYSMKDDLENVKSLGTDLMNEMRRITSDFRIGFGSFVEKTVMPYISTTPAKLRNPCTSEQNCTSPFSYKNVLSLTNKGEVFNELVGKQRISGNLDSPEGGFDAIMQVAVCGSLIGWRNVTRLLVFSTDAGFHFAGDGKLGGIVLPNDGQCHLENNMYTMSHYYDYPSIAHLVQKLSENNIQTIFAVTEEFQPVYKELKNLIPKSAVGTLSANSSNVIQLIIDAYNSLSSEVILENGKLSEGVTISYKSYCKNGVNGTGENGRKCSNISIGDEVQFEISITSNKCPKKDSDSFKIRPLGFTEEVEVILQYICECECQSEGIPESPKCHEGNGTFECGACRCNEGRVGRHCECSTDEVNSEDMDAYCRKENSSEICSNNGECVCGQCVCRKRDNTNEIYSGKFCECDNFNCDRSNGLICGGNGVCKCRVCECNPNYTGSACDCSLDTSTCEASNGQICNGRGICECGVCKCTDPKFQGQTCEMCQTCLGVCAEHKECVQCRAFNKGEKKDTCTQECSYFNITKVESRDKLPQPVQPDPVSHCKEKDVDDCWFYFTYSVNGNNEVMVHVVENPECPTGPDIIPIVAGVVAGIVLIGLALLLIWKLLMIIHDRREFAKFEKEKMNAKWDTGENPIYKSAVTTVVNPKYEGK

Turning to `Cc1cn(C)c(=O)c(NC(=O)N[C@@H](CC(=O)O)c2cccc(-c3c(C)cccc3C)c2)c1O` [1-470, sodium (S)-3-(3-(1,5-dimethyl-4-oxido-2-oxo-1,2-dihydropyridin-3-yl)ureido)-3-(2′,6′-dimethylbiphenyl-3-yl)propanoate], the half-maximal inhibitory concentration (IC50) in assay [1] is less than 0.02 µM; in assay [2] it was less than 0.2 µM.

Consider `Cc1cc(O)c(NC(=O)N[C@@H](CC(=O)O)c2cccc(-c3ccc(F)cc3F)c2)c(=O)n1C` [1-487, sodium (S)-3-(2′,4′-difluorobiphenyl-3-yl)-3-(3-(1,6-dimethyl-4-oxido-2-oxo-1,2-dihydropyridin-3-yl)ureido)propanoate], for which the results for the IC50 in assay [1] and in assay [2] were less than 0.02 µM and greater than 0.2 µM, respectively.

Take `Cn1ccc(O)c(NC(=O)N[C@@H](CC(=O)O)c2cccc(-c3ccc(F)cc3F)c2)c1=O` [1-488, sodium (S)-3-(2′,4′-difluorobiphenyl-3-yl)-3-(3-(1-methyl-4-oxido-2-oxo-1,2-dihydropyridin-3-yl)ureido)propanoate]: the values for the half-inhibitory concentration (IC50) in assay [1] and in assay [2] were less than 0.02 µM and greater than 0.2 µM, respectively.

Consider `Cc1cccc(C)c1-c1cccc([C@H](CC(=O)O)NC(=O)Nc2c(O)ccn(C)c2=O)c1` [1-502, sodium (S)-3-(2′,6′-dimethylbiphenyl-3-yl)-3-(3-(1-methyl-4-oxido-2-oxo-1,2-dihydropyridin-3-yl)ureido)propanoate], for which the results for the IC50 in assay [1] and in assay [2] were less than 0.02 µM and less than 0.2 µM, respectively.

As to `COc1cccc(-c2cc([C@H](CC(=O)O)NC(=O)Nc3c(O)c(C)cn(C)c3=O)ccc2OC)c1` [1-527, sodium (S)-3-(3′,6-dimethoxybiphenyl-3-yl)-3-(3-(1,5-dimethyl-4-oxido-2-oxo-1,2-dihydropyridin-3-yl)ureido)propanoate], the figures for the IC50 in assay [1] and in assay [2] were less than 0.02 µM and greater than 0.2 µM, respectively.

On to `COc1ccc([C@H](CC(=O)O)NC(=O)Nc2c(O)ccn(C)c2=O)cc1-c1c(C)cccc1C` [1-533, sodium (S)-3-(6-methoxy-2′,6′-dimethylbiphenyl-3-yl)-3-(3-(1-methyl-4-oxido-2-oxo-1,2-dihydropyridin-3-yl)ureido)propanoate], for which the IC50 in assay [1] was less than 0.02 µM; in assay [2], less than 0.2 µM.

Take `Cn1ccc(O)c(NC(=O)N[C@@H](CC(=O)O)c2cccc(-c3c(Cl)cccc3Cl)c2)c1=O` [1-537, sodium (S)-3-(2′,6′-dichlorobiphenyl-3-yl)-3-(3-(1-methyl-4-oxido-2-oxo-1,2-dihydropyridin-3-yl)ureido)propanoate]: the IC50 is less than 0.02 µM in assay [1] and less than 0.2 µM in assay [2].

`Cc1cccc(C)c1-c1cccc([C@H](CC(=O)O)NC(=O)Nc2c(O)cc(C)n(C)c2=O)c1` [1-550, sodium (S)-3-(3-(1,6-dimethyl-4-oxido-2-oxo-1,2-dihydropyridin-3-yl)ureido)-3-(2′,6′-dimethylbiphenyl-3-yl)propanoate]: the IC50 in assay [1] was less than 0.02 µM; in assay [2] it was less than 0.2 µM.

Turning to `Cc1noc(C)c1-c1cccc([C@H](CC(=O)O)NC(=O)Nc2c(O)ccn(C)c2=O)c1` [1-560, sodium (S)-3-(3-(3,5-dimethylisoxazol-4-yl)phenyl)-3-(3-(1-methyl-4-oxido-2-oxo-1,2-dihydropyridin-3-yl)ureido)propanoate], the IC50 is less than 0.02 µM in assay [1] and greater than 0.2 µM in assay [2].

On to `Cc1cccc(C)c1-c1cc([C@H](CC(=O)O)NC(=O)Nc2c(O)ccn(C)c2=O)ccc1F` [1-561, sodium (S)-3-(6-fluoro-2′,6′-dimethylbiphenyl-3-yl)-3-(3-(1-methyl-4-oxido-2-oxo-1,2-dihydropyridin-3-yl)ureido)propanoate], for which the IC50 in assay [1] and in assay [2] was less than 0.02 µM in each case.

Regarding `Cn1ccc(O)c(NC(=O)N[C@@H](CC(=O)O)c2ccc(-c3ccc(F)cc3F)s2)c1=O` [1-562, sodium (S)-3-(5-(2,4-difluorophenyl)thiophen-2-yl)-3-(3-(1-methyl-4-oxido-2-oxo-1,2-dihydropyridin-3-yl)ureido)propanoate], the IC50 in assay [1] is less than 0.02 µM; in assay [2], greater than 0.2 µM.

As for `Cc1cc(-c2cccc(OC(F)(F)F)c2)cc([C@H](CC(=O)O)NC(=O)Nc2c(O)ccn(C)c2=O)c1` [1-572, sodium (S)-3-(5-methyl-3′-(trifluoromethoxy)biphenyl-3-yl)-3-(3-(1-methyl-4-oxido-2-oxo-1,2-dihydropyridin-3-yl)ureido)propanoate], the concentration for half-maximal inhibition (IC50) was less than 0.02 µM in assay [1] and greater than 0.2 µM in assay [2].

Take `COc1cc(-c2c(C)cccc2C)cc([C@H](CC(=O)O)NC(=O)Nc2c(O)ccn(C)c2=O)c1` [1-579, sodium (S)-3-(5-methoxy-2′,6′-dimethylbiphenyl-3-yl)-3-(3-(1-methyl-4-oxido-2-oxo-1,2-dihydropyridin-3-yl)ureido)propanoate]: the IC50 in assay [1] and in assay [2] was less than 0.02 µM each time.

For `COc1cc(-c2c(C)cccc2C)cc([C@H](CC(=O)O)NC(=O)Nc2c(O)cc(C)n(C)c2=O)c1` [1-580, sodium (S)-3-(3-(1,6-dimethyl-4-oxido-2-oxo-1,2-dihydropyridin-3-yl)ureido)-3-(5-methoxy-2′,6′-dimethylbiphenyl-3-yl)propanoate], the IC50 in assay [1] and in assay [2] was less than 0.02 µM each time.

As for `COc1cccc(-c2cc(C)cc([C@H](CC(=O)O)NC(=O)Nc3c(O)ccn(C)c3=O)c2)c1` [1-582, sodium (S)-3-(3′-methoxy-5-methylbiphenyl-3-yl)-3-(3-(1-methyl-4-oxido-2-oxo-1,2-dihydropyridin-3-yl)ureido)propanoate], the values for the IC50 in assay [1] and in assay [2] were less than 0.02 µM and less than 0.2 µM, respectively.

Take `Cc1cccc(C)c1-c1cccc([C@H](CC(=O)O)NC(=O)Nc2c(O)cc3n(c2=O)CCC3)c1` [1-583, sodium (S)-3-(2′,6′-dimethylbiphenyl-3-yl)-3-(3-(7-oxido-5-oxo-1,2,3,5-tetrahydroindolizin-6-yl)ureido)propanoate]: the IC50 in assay [1] and in assay [2] was less than 0.02 µM throughout.

`Cc1cccc(C)c1-c1ccc(F)c([C@H](CC(=O)O)NC(=O)Nc2c(O)ccn(C)c2=O)c1` [1-590, sodium (S)-3-(4-fluoro-2′,6′-dimethylbiphenyl-3-yl)-3-(3-(1-methyl-4-oxido-2-oxo-1,2-dihydropyridin-3-yl)ureido)propanoate]: the IC50 in assay [1] and in assay [2] was less than 0.02 µM in each case.

As to `O=C(O)C[C@H](NC(=O)Nc1c(O)cc2n(c1=O)CCC2)c1cccc(-c2ccc(F)cc2F)c1` [1-629, sodium (S)-3-(2′,4′-difluorobiphenyl-3-yl)-3-(3-(7-oxido-5-oxo-1,2,3,5-tetrahydroindolizin-6-yl)ureido)propanoate], the IC50 in assay [1] was less than 0.02 µM; in assay [2], greater than 0.2 µM.

With `Cc1cccc(C)c1-c1cc(F)cc([C@H](CC(=O)O)NC(=O)Nc2c(O)cc(C)n(C)c2=O)c1` [1-642, sodium (S)-3-(3-(1,6-dimethyl-4-oxido-2-oxo-1,2-dihydropyridin-3-yl)ureido)-3-(5-fluoro-2′,6′-dimethylbiphenyl-3-yl)propanoate], the half-maximal inhibitory concentration (IC50) in assay [1] and in assay [2] was less than 0.02 µM in each case.
